Assays:
[1] = in vitro; settings: human
[2] = tested on: HL-60; assay: HL-60 differentiation potency; assay type: cell-based; settings: Homo sapiens

| IC50 [1] | EC50 [2] | Compound |
| --- | --- | --- |
| 5500 nM | 15.6 nM | C[C@H]1[C@@H](Oc2ccc(C(C)(C)C(=O)O)cc2)O[C@@H]2O[C@@]3(C)CC[C@H]4[C@H](C)CC[C@@H]1[C@@]24OO3 [Compound 126, 2-methyl-2-(4-(((3R,5aS,6R,8aS, 9R,10S,12R, 12aR)-3,6,9-trimethyldeca-hydro-12H-3,12-epoxy[1,2]dioxepino[4,3-i]isochromen-10-yl)oxy)phenyl) propanoic acid] |
| 58.5 nM | 41.3 nM | C[C@H]1[C@H](OCc2ccc(-c3nn[nH]n3)cc2)O[C@@H]2O[C@@]3(C)CC[C@H]4[C@H](C)CC[C@@H]1[C@@]24OO3 [Compound 2, 5-(4-((((3R,5aS,6R, 8aS,9R,10R,12R, 12aR)-3,6,9-trimethyldeca-hydro-12H-3,12-epoxy[1,2]dioxepino[4,3-i]isochromen-10-yl)oxy)methyl)phenyl)-2H-tetrazole] |
| 4880 nM | 2320 nM | COc1cc(CN[C@@H]2O[C@@H]3O[C@@]4(C)CC[C@H]5[C@H](C)CC[C@@H]([C@H]2C)[C@@]35OO4)ccn1 [Compound 50, (3R,5aS,6R,8aS, 9R,10R,12R, 12aR)-N-((2-methoxypyridin-4-yl)methyl)-3,6,9-trimethyldeca-hydro-12H-3,12-epoxy[1,2] dioxepino[4,3-i] isochromen-10-amine] |
| 1000 nM | 72.6 nM | C[C@H]1[C@@H](OC[C@H]2CC[C@@H](C(=O)NC3CC3)CC2)O[C@@H]2O[C@@]3(C)CC[C@H]4[C@H](C)CC[C@@H]1[C@@]24OO3 [Compound 143, (1R,4s)-N-cyclopropyl-4-((((3R,5aS,6R,8aS, 9R,10S,12R, 12aR)-3,6,9-trimethyldeca-hydro-12H-3,12-epoxy[1,2]dioxepino[4,3-i]isochromen-10-yl)oxy)methyl) cyclohexane-1-carboxamide] |
| 2550 nM | 93.1 nM | C[C@H]1[C@@H](OCc2ccnc(C(=O)O)c2)O[C@@H]2O[C@@]3(C)CC[C@H]4[C@H](C)CC[C@@H]1[C@@]24OO3 [Compound 15, 4-((((3R,5aS,6R, 8aS,9R,10S,12R, 12aR)-3,6,9-trimethyldeca-hydro-12H-3,12-epoxy[1,2]dioxepino[4,3-i]isochromen-10-yl)oxy)methyl) picolinic acid] |
| 2250 nM | 99 nM | C[C@H]1[C@@H](OCc2ccc(S(N)(=O)=O)cc2)O[C@@H]2O[C@@]3(C)CC[C@H]4[C@H](C)CC[C@@H]1[C@@]24OO3 [Compound 18, 4-((((3R,5aS,6R, 8aS,9R,10S,12R, 12aR)-3,6,9-trimethyldeca-hydro-12H-3,12-epoxy[1,2]dioxepino[4,3-i]isochromen-10-yl)oxy)methyl) benzene-sulfonamide] |
| > 20000 nM | 8880 nM | C[C@H]1[C@@H](OCC2(C(=O)O)CCC2)O[C@@H]2O[C@@]3(C)CC[C@H]4[C@H](C)CC[C@@H]1[C@@]24OO3 [Compound 127, 1-((((3R,5aS,6R, 8aS,9R,10S,12R, 12aR)-3,6,9-trimethyldeca-hydro-12H-3,12-epoxy[1,2]dioxepino[4,3-i]isochromen-10-yl)oxy)methyl) cyclobutane-1-carboxylic acid] |
| 243 nM | 95.5 nM | C[C@H]1[C@H](N(C)CCS(C)(=O)=O)O[C@@H]2O[C@@]3(C)CC[C@H]4[C@H](C)CC[C@@H]1[C@@]24OO3 [Compound 17, (3R,5aS,6R,8aS, 9R,10R,12R, 12aR)-N,3,6,9-tetramethyl-N-(2-(methylsulfonyl)ethyl)decahydro-12H-3,12-epoxy [1,2]dioxepino [4,3-i] isochromen-10-amine] |

The remaining lines, values behind:

| Compound | IC50 [1] | EC50 [2] |
| --- | --- | --- |
| COc1cc(CO[C@H]2O[C@@H]3O[C@@]4(C)CC[C@H]5[C@H](C)CC[C@@H]([C@H]2C)[C@@]35OO4)ccc1C(=O)O [Compound 35, 2-methoxy-4-((((3R,5aS,6R, 8aS,9R,10S,12R, 12aR)-3,6,9-trimethyldeca-hydro-12H-3,12-epoxy[1,2]dioxepino[4,3-i]isochromen-10-yl)oxy)methyl) benzoic acid] | > 20000 nM | 481 nM |
| Cc1cc(CO[C@H]2O[C@@H]3O[C@@]4(C)CC[C@H]5[C@H](C)CC[C@@H]([C@H]2C)[C@@]35OO4)ccc1C(=O)O [Compound 41, 2-methyl-4-((((3R,5aS,6R, 8aS,9R,10S,12R, 12aR)-3,6,9-trimethyldeca-hydro-12H-3,12-epoxy[1,2]dioxepino[4,3-i]isochromen-10-yl)oxy)methyl) benzoic acid] | > 20000 nM | 735 nM |
| C[C@H]1[C@H](NCCC(N)=O)O[C@@H]2O[C@@]3(C)CC[C@H]4[C@H](C)CC[C@@H]1[C@@]24OO3 [Compound 96, 3-(((3R,5aS,6R,8aS, 9R,10R,12R, 12aR)-3,6,9-trimethyldeca-hydro-12H-3,12-epoxy[1,2]dioxepino[4,3-i]isochromen-10-yl)amino) propanamide] | 1980 nM | 1700 nM |
| C[C@H]1[C@H](OC[C@H]2CCC[C@@H](C(=O)O)C2)O[C@@H]2O[C@@]3(C)CC[C@H]4[C@H](C)CC[C@@H]1[C@@]24OO3 [Compound 173, (1R,3S)-3-((((3R,5aS,6R,8aS, 9R,10R,12R, 12aR)-3,6,9-trimethyldeca-hydro-12H-3,12-epoxy[1,2]dioxepino[4,3-i]isochromen-10-yl)oxy)methyl) cyclohexane-1-carboxylic acid] | > 20000 nM | 170 nM |
| C[C@H]1[C@@H](OCc2cc(C(=O)O)ccc2Cl)O[C@@H]2O[C@@]3(C)CC[C@H]4[C@H](C)CC[C@@H]1[C@@]24OO3 [Compound 167, 4-chloro-3-((((3R,5aS,6R,8aS, 9R,10S,12R, 12aR)-3,6,9-trimethyldeca-hydro-12H-3,12-epoxy[1,2]dioxepino[4,3-i]isochromen-10-yl)oxy)methyl) benzoic acid] | 10500 nM | 132 nM |
| C[C@H]1[C@H](OCc2c(F)cc(C(=O)O)cc2F)O[C@@H]2O[C@@]3(C)CC[C@H]4[C@H](C)CC[C@@H]1[C@@]24OO3 [Compound 137, 3,5-difluoro-4-((((3R,5aS,6R,8aS, 9R,10R,12R, 12aR)-3,6,9-trimethyldeca-hydro-12H-3,12-epoxy[1,2]dioxepino[4,3-i]isochromen-10-yl)oxy)methyl) benzoic acid] | > 20000 nM | 86.8 nM |
| C[C@H]1[C@@H](Oc2ccc(C(=O)N[C@H](C(=O)O)C(C)(C)C)cc2)O[C@@H]2O[C@@]3(C)CC[C@H]4[C@H](C)CC[C@@H]1[C@@]24OO3 [Compound 184, (S)-3,3-dimethyl-2-(4-(((3R,5aS,6R,8aS, 9R,10S,12R, 12aR)-3,6,9-trimethyldeca-hydro-12H-3,12-epoxy[1,2]dioxepino[4,3-i]isochromen-10-yl)oxy)benzamido) butanoic acid] | 800 nM | 17 nM |
| C[C@@H]1CC[C@H]2[C@@H](C)C(OCc3ccc(C(=O)O)cc3F)O[C@@H]3O[C@@]4(C)CC[C@@H]1[C@]32OO4 (stereo in doubt) [Compound 45, 3-fluoro-4-((((3R,5aS,6R,8aS, 9R,10S,12R, 12aR)-3,6,9-trimethyldeca-hydro-12H-3,12-epoxy[1,2]dioxepino[4,3-i]isochromen-10-yl)oxy)methyl) benzoic acid] | > 20000 nM | 662 nM |
| C[C@H]1[C@@H](OC(=O)CCC(O)c2ccc(Cl)cc2)O[C@@H]2O[C@@]3(C)CC[C@H]4[C@H](C)CC[C@@H]1[C@@]24OO3 (stereo partly drawn) [Compound 93, (3R,5aS,6R,8aS, 9R,10R,12R, 12aR)-3,6,9-trimethyldeca-hydro-12H-3,12-epoxy[1,2] dioxepino[4,3-i] isochromen-10-yl 4-(4-chlorophenyl)-4-hydroxybutanoate] | 87.7 nM | 78.6 nM |
| COc1cc(CC(=O)O)ccc1O[C@H]1O[C@@H]2O[C@@]3(C)CC[C@H]4[C@H](C)CC[C@@H]([C@H]1C)[C@@]24OO3 [Compound 3, 2-(3-methoxy-4-(((3R,5aS,6R, 8aS,9R,10S,12R, 12aR)-3,6,9-trimethyldeca-hydro-12H-3,12-epoxy[1,2]dioxepino[4,3-i]isochromen-10-yl)oxy)phenyl) acetic acid] | > 20000 nM | 42.3 nM |
| C[C@H]1[C@@H](Oc2ccc(CC(=O)O)c(F)c2)O[C@@H]2O[C@@]3(C)CC[C@H]4[C@H](C)CC[C@@H]1[C@@]24OO3 [Compound 26, 2-(2-fluoro-4-(((3R,5aS,6R, 8aS,9R,10S,12R, 12aR)-3,6,9-trimethyldeca-hydro-12H-3,12-epoxy[1,2]dioxepino[4,3-i]isochromen-10-yl)oxy)phenyl) acetic acid] | > 20000 nM | 225 nM |
| CC(C)C(C(=O)O)c1ccc(O[C@H]2O[C@@H]3O[C@@]4(C)CC[C@H]5[C@H](C)CC[C@@H]([C@H]2C)[C@@]35OO4)cc1 (stereo partly drawn) [Compound 146, 3-methyl-2-(4-(((3R,5aS,6R,8aS, 9R,10S,12R, 12aR)-3,6,9-trimethyldeca-hydro-12H-3,12-epoxy[1,2]dioxepino[4,3-i]isochromen-10-yl)oxy)phenyl) butanoic acid] | 800 nM | 59.6 nM |
| C[C@H]1[C@@H](OCc2ccc(C(=O)NO)cc2)O[C@@H]2O[C@@]3(C)CC[C@H]4[C@H](C)CC[C@@H]1[C@@]24OO3 [Compound 5, N-hydroxy-4-((((3R,5aS,6R,8aS, 9R,10S,12R, 12aR)-3,6,9-trimethyldeca-hydro-12H-3,12-epoxy[1,2]dioxepino[4,3-i]isochromen-10-yl)oxy)methyl) benzamide] | 2880 nM | 52.2 nM |
| C[C@H]1[C@H](OCCCc2ccc(C(=O)O)cc2F)O[C@@H]2O[C@@]3(C)CC[C@H]4[C@H](C)CC[C@@H]1[C@@]24OO3 [Compound 174, 3-fluoro-4-(3-(((3R,5aS,6R,8aS, 9R,10R,12R, 12aR)-3,6,9-trimethyldeca-hydro-12H-3,12-epoxy[1,2]dioxepino[4,3-i]isochromen-10-yl)oxy)propyl) benzoic acid] | 7000 nM | 111 nM |
| C[C@H]1[C@@H](Oc2ccc(C(F)(F)C(=O)O)cc2)O[C@@H]2O[C@@]3(C)CC[C@H]4[C@H](C)CC[C@@H]1[C@@]24OO3 [Compound 171, 2,2-difluoro-2-(4-(((3R,5aS,6R,8aS, 9R,10S,12R, 12aR)-3,6,9-trimethyldeca-hydro-12H-3,12-epoxy[1,2]dioxepino[4,3-i]isochromen-10-yl)oxy)phenyl) acetic acid] | > 20000 nM | 7070 nM |

Reference: patent US20260242391A1 (priority 2023, published 2026)
